{
  "source": "paper PMC5483439",
  "about": "“The Effect of Pungent and Tingling Compounds from Piper nigrum L. on Background K^+ Currents” (Frontiers in Pharmacology, 2017)",
  "tested_on": "T1, mKCNK18",
  "T1 construct": "expressed in transfected cells; host or cells: Xenopus laevis oocytes injected with cRNA (subcloned into pSGEM; clone from Prof; Dr. P. Enyedi)",
  "experiment": "Two-electrode voltage clamp on Xenopus oocytes expressing mKCNK18",
  "format": "cell-based, mouse",
  "conditions": "1–1000 μM",
  "description": "Human KCNK3 (TASK-1, K2P3.1) cloned into the expression vector pIRES-CD8 was a gift from Dr. Fabrice Duprat (Institut National de la Santé et de la Recherche Médicale, Antipolis, France). Human KCNK18 (hTRESK, K2P18.1), cloned into the plasmid pEXO, was a gift from Dr. P. Enyedi (Semmelweis University, Budapest, Hungary). These plasmids were linearized with the restriction enzymes BamHI and XbaI, respectively, and then used as templates for in vitro transcription. Human KCNK9 (hTASK-3, K2P9.1) cloned into the expression vector pCR4-TOPO, was purchased from Imagenes (Berlin, Germany). The plasmid was linearized with the restriction enzyme SspI, to generate a linear cDNA template for in vitro transcription. mKCNK3 was isolated from mouse heart by standard procedures and inserted into pSGEM. mKCNK9 and mKCNK18 were kindly provided by Dr. D. Bayliss (University of Virginia, Charlottesville, VA, United States) and Prof. Dr. P. Enyedi (Semmelweis University, Budapest, Hungary). Both channels were subcloned into pSGEM. The pSGEM plasmids were subsequently linearized with the restriction enzyme PacI. The capped RNAs were synthesized in the presence of the capping analog m7G(5′)ppp(5′)G using the AmpliCap-T7 Message Maker kit (Epicentre, Madison, WI, United States). The cRNA was dissolved in nuclease-free water to obtain a final concentration of 100 ng/μL. […]",
  "data": [
    {"smiles": "O=C(/C=C/C=C/c1ccc2c(c1)OCO2)N1CCCCC1", "note": "[1a, piperine]", "values": [
      {"measurement": "effect on mKCNK18", "result": "much less affected"}
    ]}
  ]
}
